Measurements reported in patent publication US12410160B2 (Gilead Sciences, Inc., priority 2021, dated 2025).

Tests used:
[1] = target: human KHK-C (Homo sapiens (Human), UniProt P50053); assay: KHK Biochemical Assay (IC50), ADP-Glo, KHK-C; settings: ADP-Glo; average of at least two separate assays
Summary of the method: (§1)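 Luminescent ADP-Glo read-out of ADP made by His-tagged KHK (BL21 (DE3) expression, Ni-NTA). Enzyme and compound sat together 30 min before ATP/fructose addition, then reacted 4 h at RT in Hepes pH 7.4 buffer with KCl, MgCl2, Triton-X. Quench 1 h, detection 1 h.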

[2] = target: human KHK-A (Homo sapiens (Human), UniProt P50053); assay: KHK Biochemical Assay (IC50), ADP-Glo, KHK-A; settings: ADP-Glo; average of at least two separate assays
human KHK-A, sequence (P50053 other isoform, or with tags, fused parts or gaps): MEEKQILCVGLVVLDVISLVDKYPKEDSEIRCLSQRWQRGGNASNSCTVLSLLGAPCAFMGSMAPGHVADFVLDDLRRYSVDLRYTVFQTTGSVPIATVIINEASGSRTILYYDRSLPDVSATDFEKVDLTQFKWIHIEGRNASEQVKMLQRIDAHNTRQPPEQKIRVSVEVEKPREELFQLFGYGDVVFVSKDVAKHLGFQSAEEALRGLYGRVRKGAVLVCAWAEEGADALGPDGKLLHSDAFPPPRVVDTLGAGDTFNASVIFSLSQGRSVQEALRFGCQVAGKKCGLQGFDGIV
Summary of the method: as §1

human KHK-C, sequence (P50053 whole entry): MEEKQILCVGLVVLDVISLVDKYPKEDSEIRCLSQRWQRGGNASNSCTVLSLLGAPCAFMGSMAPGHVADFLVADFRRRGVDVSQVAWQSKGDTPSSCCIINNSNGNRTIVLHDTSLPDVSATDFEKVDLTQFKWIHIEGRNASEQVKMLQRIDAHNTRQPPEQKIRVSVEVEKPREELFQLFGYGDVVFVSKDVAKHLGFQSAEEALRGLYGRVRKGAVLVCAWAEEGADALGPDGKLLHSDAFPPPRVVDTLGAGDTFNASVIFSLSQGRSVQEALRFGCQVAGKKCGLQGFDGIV

| SMILES | IC50 [1] | IC50 [2] |
| --- | --- | --- |
| C[C@H]1CCN1c1nc2c(c(-c3nc4ccc(C(N)=O)cc4s3)n1)CCC2 [Example 857, (S)-2-(2-(2-methylazetidin-1-yl)-6,7-dihydro-5H-cyclopenta[d]pyrimidin-4-yl)benzo[d]thiazole-6-carboxamide] | 149 nM | 141 nM |
| C[C@H]1CCN1c1nc2c(c(-c3ccc4c(=O)[nH]c(=O)n(C)c4c3)n1)CCC2 [Example 858, (S)-1-methyl-7-(2-(2-methylazetidin-1-yl)-6,7-dihydro-5H-cyclopenta[d]pyrimidin-4-yl)quinazoline-2,4(1H,3H)-dione] | 43.6 nM | 18 nM |
| C[C@H]1CCN1c1nc2c(c(-c3ccc4c(c3)CCNC4C(F)(F)F)n1)CCC2 (stereo partly drawn) [Example 859, 6-(2-((S)-2-methylazetidin-1-yl)-6,7-dihydro-5H-cyclopenta[d]pyrimidin-4-yl)-1-(trifluoromethyl)-1,2,3,4-tetrahydroisoquinoline] | 301 nM | 434 nM |
| C[C@H]1CCN1c1nc2c(c(-c3cccc(S(C)(=N)=O)n3)n1)CCC2 (stereo partly drawn) [Example 860, imino(methyl)(6-(2-((S)-2-methylazetidin-1-yl)-6,7-dihydro-5H-cyclopenta[d]pyrimidin-4-yl)pyridin-2-yl)-λ^6-sulfanone] | 224 nM | 191 nM |
| CCS(=N)(=O)c1cc(-c2nc(N3CC[C@@H]3C)nc3c2CCC3)ccc1OC (stereo partly drawn) [Example 861, ethyl(imino)(2-methoxy-5-(2-((S)-2-methylazetidin-1-yl)-6,7-dihydro-5H-cyclopenta[d]pyrimidin-4-yl)phenyl)-λ^6-sulfanone] | 15.2 nM | 4.9 nM |
| COc1cc(-c2nc(N3CC[C@@H]3C)nc3c2CCC3)ccc1CS(N)(=O)=O [Example 862, (S)-(2-methoxy-4-(2-(2-methylazetidin-1-yl)-6,7-dihydro-5H-cyclopenta[d]pyrimidin-4-yl)phenyl)methanesulfonamide] | 76.4 nM | 48.1 nM |
| C[C@H]1CCN1c1nc2c(c(-c3cccc(Sc4ccc(C#N)cc4)c3)n1)CCC2 [Example 863, (S)-4-((3-(2-(2-methylazetidin-1-yl)-6,7-dihydro-5H-cyclopenta[d]pyrimidin-4-yl)phenyl)thio)benzonitrile] | > 1000 nM | > 1000 nM |
| CCc1cc(-c2nc(N3CC[C@@H]3C)nc3c2CCC3)ccc1C1(N)COC1 [Example 864, (S)-3-(2-ethyl-4-(2-(2-methylazetidin-1-yl)-6,7-dihydro-5H-cyclopenta[d]pyrimidin-4-yl)phenyl)oxetan-3-amine] | 6.3 nM | 10 nM |
| C[C@H]1CCN1c1nc2c(c(-c3ccc4c(c3)C3(CCC3)CNC4=O)n1)CCC2 [Example 865, (S)-6′-(2-(2-methylazetidin-1-yl)-6,7-dihydro-5H-cyclopenta[d]pyrimidin-4-yl)-2′,3′-dihydro-1′H-spiro[cyclobutane-1,4′-isoquinolin]-1′-one] | 17.3 nM | 25.4 nM |
| C[C@H]1CCN1c1nc2c(c(-c3cc4c(s3)C(=O)NC(C)(C)N4)n1)CCC2 [Example 866, (S)-2,2-dimethyl-6-(2-(2-methylazetidin-1-yl)-6,7-dihydro-5H-cyclopenta[d]pyrimidin-4-yl)-2,3-dihydrothieno[3,2-d]pyrimidin-4(1H)-one] | 27.7 nM | 18.9 nM |
| C[C@H]1CCN1c1nc2c(c(-c3cc4c(N)n[nH]c4cn3)n1)CCC2 [Example 867, (S)-5-(2-(2-methylazetidin-1-yl)-6,7-dihydro-5H-cyclopenta[d]pyrimidin-4-yl)-1H-pyrazolo[3,4-c]pyridin-3-amine] | > 1000 nM | > 1000 nM |
| C[C@H]1CCN1c1nc2c(c(-c3cc4c(N)nn(C(=O)OC(C)(C)C)c4cn3)n1)CCC2 [Example 868, tert-butyl (S)-3-amino-5-(2-(2-methylazetidin-1-yl)-6,7-dihydro-5H-cyclopenta[d]pyrimidin-4-yl)-1H-pyrazolo[3,4-c]pyridine-1-carboxylate] | 230 nM | 158 nM |
| COCCS(=N)(=O)c1cc(-c2nc(N3CC[C@@H]3C)nc3c2CCC3)ccc1OC (stereo partly drawn) [Example 869, imino(2-methoxy-5-(2-((S)-2-methylazetidin-1-yl)-6,7-dihydro-5H-cyclopenta[d]pyrimidin-4-yl)phenyl)(2-methoxyethyl)-λ^6-sulfanone] | 21.6 nM | 5.9 nM |
| C[C@H]1CCN1c1nc2c(c(-c3ccc4c(c3)C3(CC3)C(=O)NC4=O)n1)CCC2 [Example 870, (S)-6′-(2-(2-methylazetidin-1-yl)-6,7-dihydro-5H-cyclopenta[d]pyrimidin-4-yl)-1′H-spiro[cyclopropane-1,4′-isoquinoline]-1′,3′(2′H)-dione] | 69.5 nM | 10.9 nM |
| C[C@H]1CCN1c1nc2c(c(-c3ccc(-c4noc(=O)[nH]4)cc3)n1)CCC2 [Example 871, (S)-3-(4-(2-(2-methylazetidin-1-yl)-6,7-dihydro-5H-cyclopenta[d]pyrimidin-4-yl)phenyl)-1,2,4-oxadiazol-5(4H)-one] | 23.4 nM | 50.4 nM |
| C[C@H]1CCN1c1nc2c(c(-c3cccc(-c4noc(=O)[nH]4)c3)n1)CCC2 [Example 872, (S)-3-(3-(2-(2-methylazetidin-1-yl)-6,7-dihydro-5H-cyclopenta[d]pyrimidin-4-yl)phenyl)-1,2,4-oxadiazol-5(4H)-one] | 28.9 nM | 27 nM |
| C[C@H]1CCN1c1nc2c(c(-c3cccc(S(=N)(N)=O)c3)n1)CCC2 (stereo partly drawn) [Example 873, 3-(2-((S)-2-methylazetidin-1-yl)-6,7-dihydro-5H-cyclopenta[d]pyrimidin-4-yl)benzenesulfonimidamide] | 23.6 nM | 24.1 nM |
| C[C@H]1CCN1c1nc2c(c(-c3ccc(S(=N)(N)=O)cc3)n1)CCC2 (stereo partly drawn) [Example 874, 4-(2-((S)-2-methylazetidin-1-yl)-6,7-dihydro-5H-cyclopenta[d]pyrimidin-4-yl)benzenesulfonimidamide] | 72.3 nM | 88.4 nM |
| C[C@H]1CCN1c1nc2c(c(-c3ccc4c(c3)C3(CC4)CNC(=O)C3)n1)CCC2 (stereo partly drawn) [Example 875, 6-(2-((S)-2-methylazetidin-1-yl)-6,7-dihydro-5H-cyclopenta[d]pyrimidin-4-yl)-2,3-dihydrospiro[indene-1,3′-pyrrolidin]-5′-one] | 58 nM | 67 nM |
| C[C@H]1CCN1c1nc2c(c(-c3cccc(-c4nnn[nH]4)c3)n1)CCC2 [Example 876, (S)-4-(3-(1H-tetrazol-5-yl)phenyl)-2-(2-methylazetidin-1-yl)-6,7-dihydro-5H-cyclopenta[d]pyrimidine] | 99.4 nM | 70.4 nM |
| C[C@H]1CCN1c1nc2c(c(-c3cccc(S(=N)(=O)CC(=O)N4CCC4)c3)n1)CCC2 (stereo partly drawn) [Example 877, (2-(azetidin-1-yl)-2-oxoethyl)(imino)(3-(2-((S)-2-methylazetidin-1-yl)-6,7-dihydro-5H-cyclopenta[d]pyrimidin-4-yl)phenyl)-λ^6-sulfanone] | 208 nM | 186 nM |
| C[C@H]1CCN1c1nc2c(c(-c3cccc(S(=N)(=O)c4ccccc4)c3)n1)CCC2 (stereo partly drawn) [Example 878, imino(3-(2-((S)-2-methylazetidin-1-yl)-6,7-dihydro-5H-cyclopenta[d]pyrimidin-4-yl)phenyl)(phenyl)-λ^6-sulfanone] | 86.9 nM | 37.8 nM |
